{"source": "ChEMBL document CHEMBL1147427", "about": "“2-hydroxy-4-isopropylbenzaldehyde, a potent partial tyrosinase inhibitor” (Bioorg Med Chem Lett, 2004)", "system": "Tyrosinase (Agaricus bisporus)", "test": "Inhibitory activity at a concentration of 0.5 nm, was evaluated against the oxidation of L-3,4-dihydroxyphenylalanine (L-DOPA) catalyzed by mushroom tyrosinase; No inhibitory activity", "data": [{"smiles": "COc1cc(C(C)C)ccc1C=O", "values": [{"measurement": "IC50", "value": "No inhibition"}]}]}
